Test [1] concerns the target T1, GLS1 (purified recombinant human GAC) (Homo sapiens, UniProt O94925).
T1 sequence (O94925 55-598 isoform O94925-3 limits assumed): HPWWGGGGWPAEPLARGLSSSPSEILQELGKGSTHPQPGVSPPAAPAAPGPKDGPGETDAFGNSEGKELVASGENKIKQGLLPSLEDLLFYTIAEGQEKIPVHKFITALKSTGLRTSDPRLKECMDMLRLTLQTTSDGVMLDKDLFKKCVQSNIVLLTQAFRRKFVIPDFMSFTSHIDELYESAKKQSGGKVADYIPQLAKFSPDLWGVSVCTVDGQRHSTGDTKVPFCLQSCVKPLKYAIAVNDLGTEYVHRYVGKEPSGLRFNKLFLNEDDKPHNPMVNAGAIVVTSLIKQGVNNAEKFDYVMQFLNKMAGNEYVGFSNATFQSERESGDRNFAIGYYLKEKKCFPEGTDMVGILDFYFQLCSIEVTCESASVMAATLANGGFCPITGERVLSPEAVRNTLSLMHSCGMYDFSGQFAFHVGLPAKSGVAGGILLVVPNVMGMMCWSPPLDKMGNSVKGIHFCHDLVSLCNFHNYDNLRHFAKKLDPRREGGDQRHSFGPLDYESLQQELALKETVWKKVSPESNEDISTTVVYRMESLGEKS
In words: GLS1 enzymatic activity assay (dual-coupled, Amplex UltraRed/resorufin). Format: biochemical. The procedure, abridged:
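GAC activity measured by coupling glutamate to glutamate oxidase and HRP, generating resorufin from Amplex UltraRed. Enzyme (2 nM) preincubated with 50 mM potassium phosphate 10 min at room temperature, then inhibitor 10 min; 1 mM glutamine substrate, 1% DMSO. Fluorescence 530/590 nm, kinetic or 20-min endpoint; IC50 from four-parameter logistic fit.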

The subject of test [2] is A549 cells. In words: A549 proliferation (viability) assay, Cell Titer Fluor, 72 hours. Format: cell-based. Particulars: Homo sapiens. The procedure, abridged:
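Seed A549 at 1000 cells/well and culture 24 h. Add compound (final DMSO 0.5%) and incubate 72 h at 37 °C. Add Cell Titer Fluor, mix 15 min, incubate 30 min, read fluorescence and fit EC50 by four-parameter logistic.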

The text below walks through data of patent publication US20160002204A1 (Board of Regents, The University of Texas System, priority 2014, published 2016).

Usually pIC50 stands for −log10 of the IC50, conventionally taken in molar units. What is called pEC50 is the negative decadic logarithm of the EC50, by convention in mol/L. A low value points to a high EC50.

pEC50, pIC50: −log10 of the molar value.

Take `Cc1ccc(CC(=O)Nc2ccn(CCC(F)Cn3cc(C(=O)NCc4cccc(OC(F)(F)F)c4)nn3)c(=O)c2)cn1` (stereo not drawn) [Example 248, 1-(2-fluoro-4-{4-[2-(6-methylpyridin-3-yl)acetamido]-2-oxo-1,2-dihydropyridin-1-yl}butyl)-N-{[3-(trifluoromethoxy)phenyl]methyl}-1H-1,2,3-triazole-4-carboxamide]: the pIC50 in test [1] was greater than 7.00. For the same compound, the pEC50 in test [2] was 5.30 to 6.30.
For `O=C(Cc1cccc(OC(F)(F)F)c1)Nc1ccc(CCCCn2ccc(NC(=O)OC3CCOCC3)nc2=O)nn1` [Example 105, oxan-4-yl N-{2-oxo-1-[4-(6-{2-[3-(trifluoromethoxy)phenyl]acetamido}pyridazin-3-yl)butyl]-1,2-dihydropyrimidin-4-yl}carbamate], in test [1], the pIC50 was greater than 7.00. For the same compound, the pEC50 in test [2] was 6.30 to 7.00.
The matching figures for `O=C(CC1CCCC1)Nc1ccn(CCC(F)Cn2cc(C(=O)NCc3cccc(C(F)(F)F)n3)nn2)c(=O)c1F` (stereo not drawn) [Example 318, 1-{4-[4-(2-cyclopentylacetamido)-3-fluoro-2-oxo-1,2-dihydropyridin-1-yl]-2-fluorobutyl}-N-{[6-(trifluoromethyl)pyridin-2-yl]methyl}-1H-1,2,3-triazole-4-carboxamide]: greater than 7.00 and greater than 7.00.
Turning to `O=C(CC1CCCCC1)Nc1ccn(CCCCn2cc(C(=O)NCc3ccccn3)nn2)c(=O)c1` [Example 190, 1-{4-[4-(2-cyclohexylacetamido)-2-oxo-1,2-dihydropyridin-1-yl]butyl}-N-(pyridin-2-ylmethyl)-1H-1,2,3-triazole-4-carboxamide], in test [1], the pIC50 is greater than 7.00. Further, the negative logarithm of the EC50 (pEC50) in test [2] is 5.30 to 6.30.
Consider `O=C(Nc1ccn(CCCCc2nnc(C(=O)NCCO)s2)c(=O)n1)OCc1ccccc1` [Example 119, benzyl N-[1-(4-{5-[(2-hydroxyethyl)carbamoyl]-1,3,4-thiadiazol-2-yl}butyl)-2-oxo-1,2-dihydropyrimidin-4-yl]carbamate], for which, in test [1], the pIC50 is 5.30 to 6.30. The compound also gave a pEC50 in test [2] of less than 5.30.
The matching figures for `O=C(Cc1ccccc1)Nc1ccn(CC[C@H](F)Cn2cc(C(=O)NCc3cccc(OC(F)(F)F)c3)nn2)c(=O)c1F` [Example 127]: greater than 7.00 and greater than 7.00.
The corresponding values for `CC(C)CNC(=O)c1cn(CC(F)CCn2ccc(NC(=O)CN3CCN(C(=O)OC(C)(C)C)CC3)cc2=O)nn1` (stereo not drawn) [Example 404, tert-butyl 4-({[1-(3-fluoro-4-{4-[(2-methylpropyl)carbamoyl]-lH-1,2,3-triazol-1-yl}butyl)-2-oxo-1,2-dihydropyridin-4-yl]carbamoyl}methyl)piperazine-1-carboxylate] are 6.30 to 7.00 and 5.30 to 6.30.
As to `Cc1ccc(CNC(=O)c2nnc(CCCCn3ccc(NC(=O)OC4CCC4)c(F)c3=O)s2)cn1` [Example 468, Cyclobutyl(3-fluoro-1-(4-(5-(((6-methylpyridin-3-yl)methyl)carbamoyl)-1,3,4-thiadiazol-2-yl)butyl)-2-oxo-1,2-dihydropyridin-4-yl)carbamate], in test [1], the pIC50 is 6.30 to 7.00. Moreover, the pEC50 in test [2] was 6.30 to 7.00.
For the compound `CC(C)OC(=O)Nc1ccn(CCCCn2cc(C(=O)NCc3cccc(OC(F)(F)F)c3)nn2)c(=O)c1` [Example 43, propan-2-yl N-(2-oxo-1-{4-[4-({[3-(trifluoromethoxy)phenyl]methyl}carbamoyl)-1H-1,2,3-triazol-1-yl]butyl}-1,2-dihydropyridin-4-yl)carbamate], the pIC50 in test [1] was greater than 7.00. The pEC50 in test [2] was 6.30 to 7.00.
Consider `CC(=O)Nc1ccn(CCCCc2ccc(NC(=O)Cc3cccc(OC(F)(F)F)c3)nn2)c(=O)n1` [Example 76, N-{6-[4-(4-acetamido-2-oxo-1,2-dihydropyrimidin-1-yl)butyl]pyridazin-3-yl}-2-[3-(trifluoromethoxy)phenyl]acetamide], for which the pIC50 in test [1] is greater than 7.00. Besides, the pEC50 in test [2] is 6.30 to 7.00.
`O=C(Nc1ccn(CCC(F)Cn2cc(C(=O)NCc3cccc(OC(F)(F)F)c3)nn2)c(=O)n1)OCc1ccccc1F` (stereo not drawn) [Example 489, (2-fluorophenyl)methyl N-(1-{3-fluoro-4-[4-({[3-(trifluoro-methoxy)phenyl]methyl}carbamoyl)-1H-1,2,3-triazol-1-yl]butyl}-2-oxo-1,2-dihydropyrimidin-4-yl)carbamate]: the pIC50 in test [1] is greater than 7.00. For the same compound, the pEC50 in test [2] is greater than 7.00.
In the case of `O=C(CC1CCCC1)Nc1ccn(CCC(F)Cn2cc(C(=O)NCc3cncc(C(F)(F)F)c3)nn2)c(=O)c1F` (stereo not drawn) [Example 360, 1-{4-[4-(2-cyclopentylacetamido)-3-fluoro-2-oxo-1,2-dihydropyridin-1-yl]-2-fluorobutyl}-N-{[5-(trifluoromethyl)pyridin-3-yl]methyl}-1H-1,2,3-triazole-4-carboxamide], in test [1], the pIC50 is greater than 7.00. This compound showed a pEC50 in test [2] greater than 7.00.
Take `O=C(CC1CCC1)Nc1ccn(CCC(F)Cn2cc(C(=O)NCc3ccc(CF)nc3)nn2)c(=O)c1F` (stereo not drawn) [Example 374, 1-{4-[4-(2-cyclobutylacetamido)-3-fluoro-2-oxo-1,2-dihydropyridin-1-yl]-2-fluorobutyl}-N-{[6-(fluoromethyl)pyridin-3-yl]methyl}-1H-1,2,3-triazole-4-carboxamide]: in test [1], the pIC50 is greater than 7.00. In addition, the pEC50 in test [2] was 6.30 to 7.00.
The matching figures for `O=C(CC1CCCC1)Nc1ccn(CCC(F)Cn2cc(C(=O)NCc3cccc(OC(F)(F)F)c3)nn2)c(=O)c1` (stereo not drawn) [Example 220, 1-{4-[4-(2-cyclopentylacetamido)-2-oxo-1,2-dihydropyridin-1-yl]-2-fluorobutyl}-N-{[3-(trifluoromethoxy)phenyl]methyl}-1H-1,2,3-triazole-4-carboxamide]: greater than 7.00 and greater than 7.00.
The corresponding values for `O=C(CC1CCC1)Nc1ccn(CCC(F)Cn2cc(C(=O)NCc3cccc(OC(F)(F)F)c3)nn2)c(=O)c1` (stereo not drawn) [Example 217, l-{4-[4-(2-cyclobutylacetamido)-2-oxo-1,2-dihydropyridin-1-yl]-2-fluorobutyl}-N-{[3-(trifluoromethoxy)phenyl]methyl}-1H-1,2,3-triazole-4-carboxamide] are greater than 7.00 and greater than 7.00.
The matching figures for `O=C(CC1CCCC1)Nc1ccn(CCC(F)Cn2cc(C(=O)NCc3cc(C(F)(F)F)ccn3)nn2)c(=O)c1F` (stereo not drawn) [Example 329, 1-{4-[4-(2-cyclopentylacetamido)-3-fluoro-2-oxo-1,2-dihydropyridin-1-yl]-2-fluorobutyl}-N-{[4-(trifluoromethyl)pyridin-2-yl]methyl}-1H-1,2,3-triazole-4-carboxamide]: greater than 7.00 and greater than 7.00.
For `CC(C)(C)OC(=O)N1CCC(CC(=O)Nc2ccn(CCC(F)Cn3cc(C(=O)NCc4cccc(OC(F)(F)F)c4)nn3)c(=O)c2)C1` (stereo not drawn) [Example 221, tert-butyl 3-{[(1-{3-fluoro-4-[4-({[3-(trifluoromethoxy)phenyl]methyl}carbamoyl)-1H-1,2,3-triazol-1-yl]butyl}-2-oxo-1,2-dihydropyridin-4-yl)carbamoyl]methyl}pyrrolidine-1-carboxylate], in test [1], the pIC50 is greater than 7.00. The compound further showed a pEC50 in test [2] greater than 7.00.
Turning to `O=C(NCc1cccc(OC(F)(F)F)c1)c1cn(CC(F)CCn2ccc(COc3ccccc3F)cc2=O)nn1` (stereo not drawn) [Example 473, 1-{2-fluoro-4-[4-(2-fluorophenoxymethyl)-2-oxo-1,2-dihydropyridin-1-yl]butyl}-N-{[3-(trifluoromethoxy)phenyl]methyl}-1H-1,2,3-triazole-4-carboxamide], in test [1], the pIC50 is greater than 7.00. The compound further gave a pEC50 in test [2] of 6.30 to 7.00.
The matching figures for `O=C(Nc1ccn(CCC(F)Cn2cc(C(=O)NCc3cccc(OC(F)(F)F)c3)nn2)c(=O)n1)OC1CCC(F)(F)CC1` (stereo not drawn) [Example 498, 4,4-difluorocyclohexyl N-(1-{3-fluoro-4-[4-({[3-(trifluoro-methoxy)phenyl]methyl}carbamoyl)-1H-1,2,3-triazol-1-yl]butyl}-2-oxo-1,2-dihydropyrimidin-4-yl)carbamate]: greater than 7.00 and greater than 7.00.
With `N#CCC(=O)Nc1ccn(CCC(F)Cn2cc(C(=O)NCc3cccc(OC(F)(F)F)c3)nn2)c(=O)c1` (stereo not drawn) [Example 188, 1-{4-[4-(2-cyanoacetamido)-2-oxo-1,2-dihydropyridin-1-yl]-2-fluorobutyl}-N-{[3-(trifluoromethoxy)phenyl]methyl}-1H-1,2,3-triazole-4-carboxamide], the pIC50 in test [1] is 5.30 to 6.30. The pEC50 in test [2] was less than 5.30.
The matching figures for `O=C(Nc1ccn(CCC(F)Cn2cc(C(=O)NCc3cccc(OC(F)(F)F)c3)nn2)c(=O)c1F)OC1CCC1` (stereo not drawn) [Example 376, cyclobutyl N-(3-fluoro-1-{3-fluoro-4-[4-({[3-(trifluoro-methoxy)phenyl]methyl}carbamoyl)-1H-1,2,3-triazol-1-yl]butyl}-2-oxo-1,2-dihydropyridin-4-yl)carbamate]: greater than 7.00 and greater than 7.00.
